{"source": "patent US20250381269A1", "about": "“BISPECIFIC ANTIBODY BINDING EGFR AND B7-H3” (FORTVITA BIOLOGICS (SINGAPORE) PTE. LTD., priority 2022, published 2025)", "key": {"[1]": {"test_system": "NCI-H358 tumor-bearing mice", "experiment": "Anti-tumor efficacy in NCI-H358 tumor-bearing mice, combination with AMG510", "type": "in vivo, NOG mice", "procedure": "SPF female NOG mice (purchased from Beijing Vital River Laboratory Animal Technology Co., Ltd.) with certificate No. 1100112211001153625 were used in the experiment.\nNCI-H358 cells were routinely subcultured for the subsequent in-vivo experiment. The cells were collected by centrifugation. Then the NCI-H358 cells were resuspended in an equal-proportion mixture of PBS (1×) and Matrigel Matrix (Corning) to prepare a cell suspension with a cell concentration of 25×10^6 cells/mL. On day 0, 0.2 mL of the cell suspension was taken and subcutaneously inoculated to the right abdominal area of NOG mice to establish NCI-H358 tumor-bearing mouse models.\nSix days after the tumor cell inoculation, the tumor volume in each mouse was measured. The mice were grouped (with 7 mice in each group).\nAdministration was performed on days 6, 9, 12, and 15 after the inoculation of NCI-H358 cells. Mice were monitored for tumor volume and body weight twice a week. […] Mice were monitored for tumor volume twice a week, and were monitored for body weight every day during the administration, and twice a week after the end of administration. […] On day 33 after the inoculation, the relative tumor growth inhibition (TG1%) was calculated by the following formula: TG1%=100%×(control group tumor volume−treatment group tumor volume)/(control group tumor volume−control group tumor volume before administration).\nTumor volume measurement: The maximum length of major axis (L) and maximum length of minor axis (W) of tumors were measured with a vernier caliper, and tumor volume was calculated by the following formula: V=L×W^2/2. The mice were weighed using an electronic balance."}, "[2]": {"test_system": "LS180 (EGFR^R521K, KRAS^G12D) CRC tumor cell line", "experiment": "Proliferation inhibition experiment, LS180, combination with MRTX1133", "type": "cell-based", "conditions": "15.62 nM MRTX1133, read as without bsAb (starting value of the increase)", "procedure": "• (1) NSCLC (H358) (Cobioer, CBP60136) and CRC (LS180) (Cobioer, CBP60034): plated at 1500-2500 cells/100 μL in a 96-well low-adsorption plate (Corning, CLS7007-24EA) for 3D cell culture. • (2) The antibody molecules and small molecule inhibitors prepared in advance by dilution were added to the corresponding cell well plate, mixed well, and cultured at 37° C. with 5% CO2 for 5 days. • (3) After 5 days of continuous culture for proliferation inhibition assay, the Cell-Titer reagent (Promega, G7572) prepared in advance was added to cell wells, and the plate was left to stand at room temperature for 15-25 min in the dark. • (4) Cell-Titer and the above cell mixture were transferred to a 96-well white-bottom plate (NUNC, 136101) and detected by a multimode microplate reader (Molecular Devices, Spectra MAXi3)."}, "SK-MES-1": {"test_system": "SK-MES-1", "experiment": "Proliferation inhibition experiment, SK-MES-1 (NSCLC)", "type": "cell-based", "conditions": "TKI highest concentration 1000 nM", "procedure": "(§1) • (1) NSCLC: plated at 1500-2500 cells/100 μL in a 96-well low-adsorption plate (Corning, CLS7007-24EA) for 3D cell culture, in which the following cell lines and specific amounts were used: • NSCLC: 2000 cells/100 μL/well • NCI-H292: Cell Bank of the Chinese Academy of Sciences, SCSP-582 • NCI-H322: Cobioer, CBP60134 • NCI-H1650: ATCC, CRL-5883 • NCI-H1975: ATCC, CRL-5908 • SK-MES-1: CoBioer, CBP60152 • NCI-H1703: ATCC, HTB-43 • PC9+hB7H3: constructed as described above • CRC and HNSCC: plated at 1500-2000 cells/100 μL in a 96-well white-bottom plate (NUNC, 136101) for 2D cell culture, in which the following cell lines and specific amounts were used: • CRC: 1500 cells/100 μL/well • CCK-81: CoBioer, CBP60581 • HT-55: CoBioer, CBP60012 • H508: CoBioer, CBP60795 • LS180: CoBioer, CBP60034 • HNSCC: 1500 cells/100 μL/well • TE-1: CoBioer, CBP60655 • Colo680: CoBioer, CBP60452. (2) The antibody molecules prepared in advance by dilution were added to the corresponding cell well plate, mixed well, and cultured in an incubator at 37° C. with 5% CO2 for 5 days. • (3) After 5 days of continuous culture for proliferation inhibition assay, the Cell-Titer reagent (Promega, G7572) prepared in advance was added to cell wells, the plate was left to stand at room temperature for 15-25 min in the dark, and then CRC and HNSCC cells were directly detected by a multimode microplate reader (Molecular Devices, Spectra MAXi3). • (4) NSCLC: Cell-Titer and the cell mixture were transferred to a 96-well white-bottom plate (NUNC, 136101) and detected by a multimode microplate reader (Molecular Devices, Spectra MAXi3)."}, "H1703": {"test_system": "H1703", "experiment": "Proliferation inhibition experiment, H1703 (NSCLC)", "type": "cell-based", "conditions": "NCI-H1703; TKI highest concentration 1000 nM", "procedure": "as §1"}}, "data": [{"smiles": "C=CC(=O)N1CCN(c2nc(=O)n(-c3c(C)ccnc3C(C)C)c3nc(-c4c(O)cccc4F)c(F)cc23)[C@@H](C)C1", "note": "[AMG510, sotorasib]", "values": [{"measurement": "Tumor volume (mm^3)", "setting": "[1]; NCI-H358, NOG mice, antibodies 10 mg/kg i.p. Q3-4D x4 (h-IgG 20 mg/kg), AMG510 10 mg/kg intragastric QD x14, day 33", "value": 180, "unit": "mm^3"}, {"measurement": "Tumor growth inhibition (%)", "setting": "[1]; NCI-H358, NOG mice, antibodies 10 mg/kg i.p. Q3-4D x4, AMG510 10 mg/kg intragastric QD x14, day 33, vs h-IgG 20 mg/kg", "value": 89, "unit": "%"}, {"measurement": "body weight of mice", "setting": "[1]; NCI-H358 tumor-bearing NOG mice, during administration and on day 33", "value": "caused a gradual decrease in the body weight of mice"}]}, {"smiles": "C#Cc1c(F)ccc2cc(O)cc(-c3ncc4c(N5CC6CCC(C5)N6)nc(OC[C@@]56CCCN5C[C@H](F)C6)nc4c3F)c12", "note": "[MRTX1133]", "values": [{"measurement": "anti-LS180 tumor efficacy", "setting": "[2]", "value": 36.45, "unit": "%"}]}, {"smiles": "C#Cc1cccc(Nc2ncnc3cc(OCCOC)c(OCCOC)cc23)c1", "note": "[erlotinib]", "values": [{"measurement": "sensitivity of the cell line to EGFR-TKI, in words", "setting": "SK-MES-1", "value": "resistant and not sensitive"}, {"measurement": "sensitivity of the cell line to EGFR-TKI, in words", "setting": "H1703", "value": "resistant and not sensitive"}]}, {"smiles": "C=CC(=O)Nc1cc(Nc2nccc(-c3cn(C)c4ccccc34)n2)c(OC)cc1N(C)CCN(C)C", "note": "[osimertinib]", "values": [{"measurement": "sensitivity of the cell line to EGFR-TKI, in words", "setting": "SK-MES-1", "value": "resistant and not sensitive"}, {"measurement": "sensitivity of the cell line to EGFR-TKI, in words", "setting": "H1703", "value": "resistant and not sensitive"}]}]}
